Test [1] has as its target T1, Protein kinase C beta type (Homo sapiens, UniProt P05771). Nature of the test: Inhibition of human Protein kinase C beta 1.
Test [2] addresses Protein kinase C delta type (Homo sapiens, UniProt Q05655). The test is described as follows: Inhibition of human Protein kinase C delta.
The target in test [3] is T1, Protein kinase C beta type. The test is described as follows: Inhibition of human Protein kinase C beta 2.
Test [4] has as its target Protein kinase C alpha type (Homo sapiens, UniProt P17252). The test is described as follows: Inhibition of human Protein kinase C alpha.
Test [5] addresses T2, Protein kinase C epsilon type (Homo sapiens, UniProt Q02156).
T2 sequence (Q02156 whole entry): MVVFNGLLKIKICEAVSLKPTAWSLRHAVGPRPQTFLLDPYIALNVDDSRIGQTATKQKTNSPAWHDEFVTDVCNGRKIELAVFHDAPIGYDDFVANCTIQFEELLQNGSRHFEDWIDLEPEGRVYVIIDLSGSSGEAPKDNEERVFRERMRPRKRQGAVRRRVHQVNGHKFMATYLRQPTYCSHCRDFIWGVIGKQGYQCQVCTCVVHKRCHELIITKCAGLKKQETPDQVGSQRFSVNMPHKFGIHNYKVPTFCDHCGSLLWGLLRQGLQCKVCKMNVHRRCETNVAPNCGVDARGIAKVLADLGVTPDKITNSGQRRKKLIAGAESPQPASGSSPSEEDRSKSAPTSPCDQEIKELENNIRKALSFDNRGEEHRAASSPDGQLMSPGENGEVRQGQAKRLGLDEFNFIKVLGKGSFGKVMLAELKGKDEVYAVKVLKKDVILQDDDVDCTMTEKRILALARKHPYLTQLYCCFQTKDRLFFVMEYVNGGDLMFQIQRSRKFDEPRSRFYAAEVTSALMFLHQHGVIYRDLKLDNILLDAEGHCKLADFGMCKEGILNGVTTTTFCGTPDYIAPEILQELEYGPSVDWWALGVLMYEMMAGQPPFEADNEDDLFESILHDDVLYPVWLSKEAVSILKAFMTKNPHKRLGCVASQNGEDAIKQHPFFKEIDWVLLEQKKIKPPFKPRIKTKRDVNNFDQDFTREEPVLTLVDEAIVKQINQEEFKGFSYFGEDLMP
Nature of the test: Inhibition of human Protein kinase C epsilon.

The target in test [6] is Protein kinase C eta type (Homo sapiens, UniProt P24723). The test is described as follows: Inhibition of human Protein Kinase C eta.
Test [7] deals with Protein kinase C gamma type (Homo sapiens, UniProt P05129). Nature of the test: Inhibition of human Protein kinase C gamma.
Test [8] deals with T3, Protein kinase C zeta type (Homo sapiens, UniProt Q05513).
T3 sequence (Q05513 whole entry): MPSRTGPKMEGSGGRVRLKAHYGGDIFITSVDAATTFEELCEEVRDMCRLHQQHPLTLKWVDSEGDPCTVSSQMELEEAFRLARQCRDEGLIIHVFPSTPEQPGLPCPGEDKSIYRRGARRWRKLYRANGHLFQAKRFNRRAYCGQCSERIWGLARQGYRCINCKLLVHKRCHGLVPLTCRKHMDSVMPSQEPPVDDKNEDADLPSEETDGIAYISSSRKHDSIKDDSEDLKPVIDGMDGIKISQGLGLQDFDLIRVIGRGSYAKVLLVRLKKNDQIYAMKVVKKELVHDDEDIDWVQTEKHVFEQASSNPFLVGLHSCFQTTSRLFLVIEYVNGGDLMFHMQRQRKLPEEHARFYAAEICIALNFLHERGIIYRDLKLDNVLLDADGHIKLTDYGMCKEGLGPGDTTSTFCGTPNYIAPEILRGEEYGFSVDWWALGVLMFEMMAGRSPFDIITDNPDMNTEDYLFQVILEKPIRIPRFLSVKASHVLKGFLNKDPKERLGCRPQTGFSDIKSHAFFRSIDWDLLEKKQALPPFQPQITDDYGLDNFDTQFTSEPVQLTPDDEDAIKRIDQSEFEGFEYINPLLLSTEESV
The test is described as follows: Inhibition of Protein kinase C zeta.

Protein kinase C delta type, sequence (Q05655 whole entry): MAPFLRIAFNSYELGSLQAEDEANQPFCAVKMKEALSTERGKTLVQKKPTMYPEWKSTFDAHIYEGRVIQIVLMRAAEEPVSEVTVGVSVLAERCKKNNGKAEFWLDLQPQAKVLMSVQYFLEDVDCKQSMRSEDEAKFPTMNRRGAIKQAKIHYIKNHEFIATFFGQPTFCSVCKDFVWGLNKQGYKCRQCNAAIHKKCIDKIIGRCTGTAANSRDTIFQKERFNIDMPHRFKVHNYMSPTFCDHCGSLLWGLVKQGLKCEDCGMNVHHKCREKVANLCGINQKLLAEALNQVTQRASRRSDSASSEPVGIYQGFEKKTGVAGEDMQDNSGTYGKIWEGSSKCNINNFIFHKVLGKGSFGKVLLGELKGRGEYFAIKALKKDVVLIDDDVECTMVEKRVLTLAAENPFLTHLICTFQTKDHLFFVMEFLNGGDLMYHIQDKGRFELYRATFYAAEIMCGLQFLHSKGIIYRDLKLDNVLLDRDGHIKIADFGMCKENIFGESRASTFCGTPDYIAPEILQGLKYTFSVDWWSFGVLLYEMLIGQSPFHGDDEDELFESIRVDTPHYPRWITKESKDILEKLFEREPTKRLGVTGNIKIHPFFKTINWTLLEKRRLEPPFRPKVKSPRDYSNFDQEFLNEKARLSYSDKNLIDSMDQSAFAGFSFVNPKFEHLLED
T1 sequence (P05771 whole entry): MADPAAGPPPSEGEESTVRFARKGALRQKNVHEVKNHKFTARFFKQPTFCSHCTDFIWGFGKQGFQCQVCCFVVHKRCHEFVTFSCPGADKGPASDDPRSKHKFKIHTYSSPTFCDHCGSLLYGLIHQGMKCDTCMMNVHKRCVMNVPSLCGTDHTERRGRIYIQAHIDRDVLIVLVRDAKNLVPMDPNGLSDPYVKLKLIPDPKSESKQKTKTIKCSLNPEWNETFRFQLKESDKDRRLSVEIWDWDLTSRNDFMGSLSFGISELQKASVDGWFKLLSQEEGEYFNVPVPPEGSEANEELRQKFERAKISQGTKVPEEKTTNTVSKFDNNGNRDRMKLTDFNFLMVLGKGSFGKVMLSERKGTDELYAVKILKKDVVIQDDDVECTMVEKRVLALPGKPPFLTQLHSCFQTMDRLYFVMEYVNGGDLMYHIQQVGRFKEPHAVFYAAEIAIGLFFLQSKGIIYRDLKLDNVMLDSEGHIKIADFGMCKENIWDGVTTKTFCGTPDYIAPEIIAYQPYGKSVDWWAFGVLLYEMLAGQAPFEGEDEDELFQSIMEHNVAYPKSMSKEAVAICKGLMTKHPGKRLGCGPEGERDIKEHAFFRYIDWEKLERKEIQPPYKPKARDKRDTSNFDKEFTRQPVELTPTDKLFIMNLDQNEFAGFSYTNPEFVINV
Protein kinase C eta type, sequence (P24723 whole entry): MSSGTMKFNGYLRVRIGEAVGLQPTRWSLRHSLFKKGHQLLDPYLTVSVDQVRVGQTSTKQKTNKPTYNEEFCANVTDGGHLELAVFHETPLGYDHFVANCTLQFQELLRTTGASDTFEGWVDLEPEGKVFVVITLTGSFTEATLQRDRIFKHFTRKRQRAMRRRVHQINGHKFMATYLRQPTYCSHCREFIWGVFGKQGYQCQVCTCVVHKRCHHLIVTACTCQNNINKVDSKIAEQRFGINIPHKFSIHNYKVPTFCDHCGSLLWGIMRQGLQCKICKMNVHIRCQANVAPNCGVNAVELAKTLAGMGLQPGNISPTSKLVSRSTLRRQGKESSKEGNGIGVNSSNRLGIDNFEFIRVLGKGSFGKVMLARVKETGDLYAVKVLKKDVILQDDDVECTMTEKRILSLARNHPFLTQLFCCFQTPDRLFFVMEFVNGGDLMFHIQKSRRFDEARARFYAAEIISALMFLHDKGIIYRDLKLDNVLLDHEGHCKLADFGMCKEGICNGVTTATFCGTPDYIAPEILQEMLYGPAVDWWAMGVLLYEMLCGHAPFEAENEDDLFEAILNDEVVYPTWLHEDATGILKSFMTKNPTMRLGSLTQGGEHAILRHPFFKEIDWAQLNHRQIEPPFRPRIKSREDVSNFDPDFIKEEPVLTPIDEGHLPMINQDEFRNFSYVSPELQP

Broadly, the IC50 is the concentration at which inhibition is half-maximal. Regarding `O=C(N[C@H]1C[C@H](CO)C[C@H]1OC(=O)c1cc(O)c(C(=O)c2c(O)cccc2C(=O)O)c(O)c1)c1ccc(O)cc1`, the 50% inhibitory concentration (IC50) in test [1] stood at 4 nM; in test [2], 4 nM; in test [3] it was 3 nM; in test [4], 10 nM; in test [5], 160 nM; in test [6], 2 nM. Half-maximal inhibition in test [7] (IC50) required 5 nM.
Regarding `N[C@@H]1C[C@H](NC(=O)c2ccc(O)cc2)[C@H](OC(=O)c2cc(O)c(C(=O)c3c(O)cccc3C(=O)O)c(O)c2)C1`, the IC50 stood at 4 nM in test [1]; 5 nM in test [2]; 2 nM in test [3]; 20 nM in test [4]; 10 nM in test [5]; 2 nM in test [6]. Further, the results for the IC50 in test [8] and in test [7] were 1200 nM and 5 nM, respectively.
On to `NC[C@H]1C[C@H](NC(=O)c2ccc(O)cc2)[C@H](OC(=O)c2cc(O)c(C(=O)c3c(O)cccc3C(=O)O)c(O)c2)C1`, for which the concentration for half-maximal inhibition (IC50) in test [1] worked out at 4 nM; in test [2], 6 nM; in test [3], 4 nM; in test [4], 20 nM; in test [5], 30 nM; in test [6] it was 3 nM. Moreover, the IC50 in test [8] came to 2800 nM; in test [7] it was 5 nM.
For `O=C(N[C@H]1C[C@@H](CO)C[C@H]1OC(=O)c1cc(O)c(C(=O)c2c(O)cccc2C(=O)O)c(O)c1)c1ccc(O)cc1`, the IC50 in test [1] amounted to 60 nM; in test [2], 20 nM; in test [3] it was 20 nM; in test [4], 80 nM; in test [5], 260 nM; in test [6], 20 nM. The IC50 in test [7] stood at 45 nM.
For the compound `NC[C@@H]1C[C@H](NC(=O)c2ccc(O)cc2)[C@H](OC(=O)c2cc(O)c(C(=O)c3c(O)cccc3C(=O)O)c(O)c2)C1`, the half-maximal inhibitory concentration (IC50) was found to be 5 nM in test [1]; 20 nM in test [2]; 5 nM in test [3]; 20 nM in test [4]; 30 nM in test [5]; 3 nM in test [6]. Also, the results for the IC50 in test [8] and in test [7] were 3100 nM and 10 nM, respectively.
For `O=C(N[C@H]1C[C@H](O)C[C@H]1OC(=O)c1cc(O)c(C(=O)c2c(O)cccc2C(=O)O)c(O)c1)c1ccc(O)cc1`, the IC50 in test [1] is 20 nM; in test [2], 6 nM; in test [3], 20 nM; in test [4], 50 nM; in test [5] it was 150 nM; in test [6], 4 nM. The same compound came in with an IC50 in test [7] of 30 nM.
For `O=C(N[C@@H]1CNCCC[C@H]1OC(=O)c1cc(O)c(C(=O)c2c(O)cccc2C(=O)O)c(O)c1)c1ccc(O)cc1` (racemic) [BALANOL], the values for the IC50 in test [2], in test [3] and in test [4] were 30 nM, 40 nM and 70 nM, respectively.
Consider `O=C(N[C@H]1C[C@@H](O)C[C@H]1OC(=O)c1cc(O)c(C(=O)c2c(O)cccc2C(=O)O)c(O)c1)c1ccc(O)cc1.O=C(N[C@H]1C[C@H](O)C[C@H]1OC(=O)c1cc(O)c(C(=O)c2c(O)cccc2C(=O)O)c(O)c1)c1ccc(O)cc1` (single isomer, unassigned), for which the IC50 in test [1] was 20 nM; in test [2] it was 5 nM; in test [3], 10 nM; in test [4] it was 40 nM; in test [5], 100 nM; in test [6], 3 nM. The IC50 in test [7] was 20 nM.

The values above are taken from ChEMBL document CHEMBL1151070 (Bioorg Med Chem Lett, 1995).
